Reference: patent US20200325177A1, “METHODS OF MAKING STREPTOGRAMIN COMPOSITIONS AND THE USE THEREOF” (THE REGENTS OF THE UNIVERSITY OF CALIFORNIA, priority 2017, published 2020)
Values after ≈ are worked out from the molar mass of the structure shown. Read-outs that look alike come from different tables or passages of the source.

Experiments:
Format in all cases: cell-based
[1] = system: K. pneumoniae multidrug-resistant; assay: MIC, Gram-negative bacteria: K. pneumoniae multidrug-resistant; settings: Klebsiella pneumoniae, read-out: Minimal Inhibitory Concentration (MIC) K. pneumoniae multidrug-resistant
[2] = system: P. aeruginosa ATCC 27853; assay: MIC, Gram-negative bacteria: P. aeruginosa ATCC 27853; settings: Pseudomonas aeruginosa, ATCC27853, read-out: Minimal Inhibitory Concentration (MIC) P. aeruginosa ATCC 27853
[3] = system: E. faecium ATCC 35667; assay: MIC, Gram-positive bacteria: E. faecium ATCC 35667; settings: Enterococcus faecium, ATCC35667, column 2, read-out: Minimal Inhibitory Concentration (MIC) E. faecium ATCC 35667
[4] = system: S. pneumoniae; assay: MIC, Gram-positive bacteria: S. pneumoniae; settings: Streptococcus pneumoniae, column 10, read-out: Minimal Inhibitory Concentration (MIC) S. pneumoniae
[5] = system: S. aureus; assay: MIC, Gram-positive bacteria: S. aureus (strains not named); settings: Staphylococcus aureus, read-out: Minimal Inhibitory Concentration (MIC) S. aureus
[6] = system: E. faecalis; assay: MIC, Gram-positive bacteria: E. faecalis; settings: Enterococcus faecalis, column 1, read-out: Minimal Inhibitory Concentration (MIC) E. faecalis
[7] = system: H. influenzae ATCC 49247; assay: MIC, Gram-negative bacteria: H. influenzae ATCC 49247; settings: Haemophilus influenzae, ATCC49247, read-out: Minimal Inhibitory Concentration (MIC) H. influenzae ATCC 49247
[8] = system: E. faecium VRE; vanA; assay: MIC, Gram-positive bacteria: E. faecium VRE; vanA; settings: Enterococcus faecium, column 3, read-out: Minimal Inhibitory Concentration (MIC) E. faecium VRE
[9] = system: P. aeruginosa MDR clinical isolate; assay: MIC, Gram-negative bacteria: P. aeruginosa MDR clinical isolate; settings: Pseudomonas aeruginosa, read-out: Minimal Inhibitory Concentration (MIC) P. aeruginosa MDR clinical isolate
[10] = system: Gram-Negative Organisms; assay: microbe, parasite or virus in culture
[11] = system: S. aureus Vat A streptogramin; assay: MIC, Gram-positive bacteria: S. aureus Vat A streptogramin; settings: Staphylococcus aureus; Gram-positive; column 5; read-out: Minimal Inhibitory Concentration (MIC) S. aureus Vat A streptogramin
[12] = system: S. aureus Linezolid-resistant; cfr; assay: MIC, Gram-positive bacteria: S. aureus Linezolid-resistant; cfr; settings: Staphylococcus aureus, column 9, read-out: Minimal Inhibitory Concentration (MIC) S. aureus Linezolid-resistant
[13] = first unnamed S. aureus column (c4)
[14] = fourth unnamed S. aureus column (c8)
[15] = second unnamed S. aureus column (c6)
[16] = third unnamed S. aureus column (c7)
[17] = Acinetobacter baumannii, ATCC19606, read-out: Minimal Inhibitory Concentration (MIC), A. baumannii ATCC 19606
[18] = Escherichia coli, ATCC25922, read-out: Minimal Inhibitory Concentration (MIC), E. coli ATCC 25922
[19] = Escherichia coli, read-out: Minimal Inhibitory Concentration (MIC), E. coli BAS2006, OMP C, OMP F
[20] = Escherichia coli, read-out: Minimal Inhibitory Concentration (MIC), E. coli olC efflux defective
[21] = Escherichia coli, read-out: Minimal Inhibitory Concentration (MIC), E. coli permeability mutant BAS1314, IMP4213ZAB::TN10
[22] = Klebsiella pneumoniae, ATCC43816, read-out: Minimal Inhibitory Concentration (MIC), K. pneumoniae ATCC 43816

Row | Structure (SMILES) | MIC [1] [µg/mL] | MIC [2] [µg/mL] | MIC [3] [µg/mL] | MIC [4] [µg/mL] | MIC [5, 13] [µg/mL] | MIC [5, 14] [µg/mL] | MIC [5, 15] [µg/mL] | MIC [5, 16] [µg/mL] | MIC [6] [µg/mL] | MIC [7] [µg/mL] | MIC [8] [µg/mL] | MIC [9] [µg/mL] | MIC [10, 17] [µg/mL] | MIC [10, 18] [µg/mL] | MIC [10, 19] [µg/mL] | MIC [10, 20] [µg/mL] | MIC [10, 21] [µg/mL] | MIC [10, 22] [µg/mL] | MIC [11] [µg/mL] | MIC [12] [µg/mL] | also measured
1 | CC1=C\[C@@H](O)CC(=O)Cc2nc(co2)C(=O)N2CCC[C@@H]2C(=O)O[C@H]([C@H](C)COC(=O)Nc2ccc(C)cc2)[C@H](C)/C=C/C(=O)NC\C=C\1 [SA0110184] | > 64 | > 64 | 16 (≈ 23.6 µM) | 32 (≈ 47.3 µM) | 16 (≈ 23.6 µM) | 16 (≈ 23.6 µM) | 16 (≈ 23.6 µM) | 32 (≈ 47.3 µM) | > 64 | 16 (≈ 23.6 µM) | 16 (≈ 23.6 µM) | > 64 | > 64 | > 64 | > 64 | 4 (≈ 5.91 µM) | 2 (≈ 2.96 µM) | > 64 | > 64 | > 64 | MIC ([10]; Escherichia coli, read-out: Minimal Inhibitory Concentration (MIC), E. coli ΔompC768, KanR insert): > 64 µg/mL
2 | CC1=C\[C@@H](O)CC(=O)Cc2nc(co2)C(=O)N2CCC[C@@H]2C(=O)O[C@H]([C@@H](C)COC(=O)Nc2ccc(OC(F)(F)F)cc2)[C@H](C)/C=C/C(=O)NC\C=C\1 [SA0110041] | > 64 | > 64 | 8 (≈ 10.7 µM) | > 64 | > 64 | 32 (≈ 42.9 µM) | > 64 | > 64 | > 64 | > 64 | > 64 | > 64 | > 64 | > 64 | > 64 | 8 (≈ 10.7 µM) | 8 (≈ 10.7 µM) | > 64 | > 64 | > 64 | 
3 | CC1=C\[C@@H](O)CC(=O)Cc2nc(co2)C(=O)N2CCC[C@@H]2C(=O)O[C@H]([C@@H](C)COC(=O)Nc2ccccc2)[C@H](C)/C=C/C(=O)NC\C=C\1 [SA0110043] | > 64 | > 64 | 16 (≈ 24.1 µM) | 16 (≈ 24.1 µM) | 32 (≈ 48.3 µM) | 32 (≈ 48.3 µM) | 32 (≈ 48.3 µM) | 64 (≈ 96.6 µM) | > 64 | 32 (≈ 48.3 µM) | 64 (≈ 96.6 µM) | > 64 | > 64 | > 64 | 16 (≈ 24.1 µM) | 2 (≈ 3.02 µM) | 8 (≈ 12.1 µM) | > 64 | > 64 | > 64 | 
4 | CC1=C\[C@@H](O)CC(=O)Cc2nc(co2)C(=O)N2CCC[C@@H]2C(=O)O[C@H]([C@@H](C)COC(=O)Nc2cc3ccccc3cn2)[C@H](C)/C=C/C(=O)NC\C=C\1 [SA0110118] | > 64 | > 64 | 4 (≈ 5.6 µM) | 2 (≈ 2.8 µM) | 8 (≈ 11.2 µM) | 8 (≈ 11.2 µM) | 8 (≈ 11.2 µM) | 16 (≈ 22.4 µM) | > 64 | > 64 | 16 (≈ 22.4 µM) | > 64 | > 64 | > 64 | 8 (≈ 11.2 µM) | 2 (≈ 2.8 µM) | 2 (≈ 2.8 µM) | > 64 | > 64 | > 64 | 
5 | CC1=C\[C@@H](O)CC(=O)Cc2nc(co2)C(=O)N2CCC[C@@H]2C(=O)O[C@H]([C@@H](C)COC(=O)Nc2cc(C)on2)[C@H](C)/C=C/C(=O)NC\C=C\1 [SA0110115] | > 64 | > 64 | 32 (≈ 47.9 µM) | 16 (≈ 24 µM) | > 64 | 64 (≈ 95.8 µM) | > 64 | > 64 | > 64 | 64 (≈ 95.8 µM) | > 64 | > 64 | > 64 | > 64 | 64 (≈ 95.8 µM) | 8 (≈ 12 µM) | 16 (≈ 24 µM) | > 64 | > 64 | > 64 | 
6 | CC1=C\[C@@H](O)CC(=O)Cc2nc(co2)C(=O)N2CCC[C@@H]2C(=O)O[C@H]([C@@H](C)COC(=O)Nc2ccn(C)n2)[C@H](C)/C=C/C(=O)NC\C=C\1 [SA0110113] | > 64 | > 64 | 64 (≈ 96 µM) | 8 (≈ 12 µM) | > 64 | > 64 | > 64 | > 64 | > 64 | 64 (≈ 96 µM) | > 64 | > 64 | > 64 | > 64 | 64 (≈ 96 µM) | 8 (≈ 12 µM) | 16 (≈ 24 µM) | > 64 | > 64 | > 64 | 
